According to the NIST ThermoML archive (doi:10.1021/acs.jced.6b00197):
± gives the expanded uncertainty stated by the source.

How the values were obtained:
[1] = Boiling temperature at pressure P; details: Liquid, Ebulliometric method (Recirculating still)
[2] = Liquid; for mass density: 293.15 K, 101.33 kPa, Pycnometric method; for Normal boiling temperature: Ebulliometric method (Recirculating still)
[3] = refractive index (Na D-line) (dimensionless); details: 293.25 K; 101.33 kPa; Liquid; Standard Abbe refractometry

CC(C)CCO [3-methylbutan-1-ol]
[1]
Details	Boiling temperature at pressure P [°C]
5 kPa	62.70 ± 0.26
10 kPa	75.77 ± 0.21
19.99 kPa	90.18 ± 0.16
40.01 kPa	106.36 ± 0.15
49.99 kPa	111.97 ± 0.15
59.99 kPa	116.67 ± 0.15
79.99 kPa	124.46 ± 0.14
100 kPa	130.86 ± 0.14
101.31 kPa	131.21 ± 0.14
120 kPa	136.04 ± 0.14
139.99 kPa	141.06 ± 0.14
159.99 kPa	145.36 ± 0.14
180.01 kPa	149.28 ± 0.14
200 kPa	152.86 ± 0.14

Details	Normal boiling temperature [°C]	mass density [kg/m3]	refractive index
[2]	131.30 ± 0.2	810 ± 8	–
[3]	–	–	1.4067 ± 0.0008

CC(=O)OCCC(C)C [3-methylbutyl ethanoate]
[1]
Details	Boiling temperature at pressure P [°C]
4.98 kPa	59.86 ± 0.29
10.05 kPa	75.04 ± 0.23
19.88 kPa	92.10 ± 0.17
39.98 kPa	111.42 ± 0.16
50.03 kPa	118.20 ± 0.15
60.02 kPa	123.93 ± 0.15
79.97 kPa	133.43 ± 0.15
99.82 kPa	141.17 ± 0.15
101.09 kPa	141.63 ± 0.15
120.12 kPa	147.90 ± 0.15
140.02 kPa	153.64 ± 0.15
159.98 kPa	158.77 ± 0.15
179.92 kPa	163.38 ± 0.15
199.94 kPa	167.59 ± 0.15

Details	Normal boiling temperature [°C]	mass density [kg/m3]	refractive index
[2]	142.09 ± 0.2	873 ± 8	–
[3]	–	–	1.4008 ± 0.0008
